Reference: US8557849B2 (priority 2008, dated 2013)

Assay: Measurement of logP values by HPLC on reversed phase columns (EEC directive 79/831 Annex V.A8)
Assay type: physicochemical
Conditions: method [a]: pH 2.3 with 0.1% phosphoric acid and acetonitrile as eluent
Description: Measurement of logP values was performed according EEC directive 79/831 Annex V.A8 by HPLC (High Performance Liquid Chromatography) on reversed phase columns with the following methods: • ^[a] Measurement was done at pH 2.3 with 0.1% phosphoric acid and acetonitrile as eluent. • ^[b] measurement of LC-MS was done at pH 2.7 with 0.1% formic acid in water and with acetonitrile (contains 0.1% formic acid) as eluent with a linear gradient from 10% acetonitrile to 95% acetonitrile. • ^[c] Measurement with LC-MS was done at pH 7.8 with 0.001 molar ammonium hydrogen carbonate solution in water as eluent with a linear gradient from 10% acetonitrile to 95% acetonitrile.

SMILES	log p
CC(ON=C(c1ccccc1)c1nnnn1C)c1csc(C#CCCCc2ccccc2)n1 (stereo not shown) [Example 3]	5.08^[a]
CC(ON=C(c1ccccc1)c1nnnn1C)c1csc(C#CCC2CCCC2)n1 (stereo not shown) [Example 4]	5.23^[a]
CC(ON=C(c1ccccc1)c1nnnn1C)c1csc(C#CCC2CCCCC2)n1 (stereo not shown) [Example 5]	5.65^[a]
CCCCC#Cc1nc(C(C)ON=C(c2ccccc2)c2nnnn2C)cs1 (stereo not shown) [Example 6]	4.73^[a]
Cn1nnnc1C(=NOCCc1csc(Br)n1)c1ccccc1 [Example 7]	3.25^[a]
Cn1nnnc1C(=NOCCc1csc(C#CC2CC2)n1)c1ccccc1 [Example 8]	3.69^[a]
CCCCC#Cc1nc(CCON=C(c2ccccc2)c2nnnn2C)cs1 [Example 9]	4.46^[a]

Same assay, conditions: method [b]: LC-MS at pH 2.7 with 0.1% formic acid in water and acetonitrile, linear gradient 10% to 95% acetonitrile

SMILES	log p
Cn1nnnc1C(=NOC(=O)c1ccccn1)c1ccccc1 [Example 10]	2.13^[b]
CC(ON=C(c1ccccc1)c1nnnn1C)c1ccccn1 (stereo not shown) [Example 11]	2.19^[b]
CC(ON=C(c1ccccc1)c1nnnn1C)c1cccc(N)n1 (stereo not shown) [Example 12]	1.34^[b]
CC(C)CC(=O)Nc1cccc(C(C)O/N=C(/c2ccccc2)c2nnnn2C)n1 (stereo not shown) [Example 13]	3.53^[b]
CCCCCC(=O)Nc1cccc(C(C)O/N=C(\c2ccccc2)c2nnnn2C)n1 (stereo not shown) [Example 14]	3.83^[b]
CCCCCOC(=O)Nc1cccc(C(C)O/N=C(\c2ccccc2)c2nnnn2C)n1 (stereo not shown) [Example 15]	4.41^[b]
CCCCCC(=O)Nc1cccc(C(C)O/N=C(/c2ccccc2)c2nnnn2C)n1 (stereo not shown) [Example 17]	3.96^[b]
CCCCCOC(=O)Nc1cccc(C(C)O/N=C(/c2ccccc2)c2nnnn2C)n1 (stereo not shown) [Example 18]	4.54^[b]

Same assay, conditions: reversed phase HPLC column, pH 2.7; HCOOH; given in preparation examples; read-out: logP(HCOOH)

SMILES	chromatographic logP
CC(O)c1csc(N)n1 (stereo not shown) [1-(2-amino-1,3-thiazol-4-yl)ethanol]	-0.16
CC(O)c1csc(Br)n1 (stereo not shown) [1-(2-bromo-1,3-thiazol-4-yl)ethanol]	1.1
CC(Br)c1csc(Br)n1 (stereo not shown) [2-bromo-4-(1-bromoethyl)-1,3-thiazole]	2.61
CC(ON=C(c1ccccc1)c1nnnn1C)c1csc(Br)n1 (stereo not shown) [Example 1]	3.44
CC(ON=C(c1ccccc1)c1nnnn1C)c1csc(C#CC2CC2)n1 (stereo not shown) [Example 2, N-{1-[2-(cyclopropylethynyl)-1,3-thiazol-4-yl]ethoxy}-1-(1-methyl-1H-tetrazol-5-yl)-1-phenylmethanimine]	3.89
CC(ON=C(c1ccccc1)c1nnnn1C)c1cccc(N)n1 (stereo not shown) [Example 16, 6-[1-({[(1-methyl-1H-tetrazol-5-yl)(phenyl)methylene]amino}oxy)ethyl]pyridin-2-amine]	1.21
CC(ON=C(c1ccccc1)c1nnnn1C)c1cccc(NC(=O)C(C)(C)C)n1 (stereo not shown) [Example 19, 2,2-dimethyl-N-{6-[1-({[(1-methyl-1H-tetrazol-5-yl)(phenyl)methylene]amino}oxy)ethyl]pyridin-2-yl}propanamide]	3.64
CC(ON=C(c1ccccc1)c1nnnn1C)c1cccc(NC(=O)OC(C)(C)C)n1 (stereo not shown) [Example 20, tert-butyl {6-[1-({[(1-methyl-1H-tetrazol-5-yl)(phenyl)methylene]amino}oxy)ethyl]pyridin-2-yl}carbamate]	4.09
CC(C)(C)C(=O)Nc1cccc(Br)n1 [N-(6-bromopyridin-2-yl)-2,2-dimethylpropanamide]	2.84
CC(Br)c1cccc(NC(=O)C(C)(C)C)n1 (stereo not shown) [N-[6-(1-bromoethyl)pyridin-2-yl]-2,2-dimethylpropanamide]	3.05
CC(O)c1cccc(NC(=O)C(C)(C)C)n1 (stereo not shown) [N-[6-(1-hydroxyethyl)pyridin-2-yl]-2,2-dimethylpropanamide]	1.08

Same assay, conditions: reversed phase HPLC column; method [a]: pH 2.3 with 0.1% phosphoric acid and acetonitrile as eluent; read-out: log p

SMILES	chromatographic logP
CC(ON=C(c1ccccc1)c1nnnn1C)c1csc(Br)n1 (stereo not shown) [Example 1]	3.44
CC(ON=C(c1ccccc1)c1nnnn1C)c1csc(C#CC2CC2)n1 (stereo not shown) [Example 2, N-{1-[2-(cyclopropylethynyl)-1,3-thiazol-4-yl]ethoxy}-1-(1-methyl-1H-tetrazol-5-yl)-1-phenylmethanimine]	3.89
